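Briefly, cells in 96-well plates were exposed to five compound concentrations for 48 h, and endpoints were estimated by linear interpolation. At the GI50, growth is halved. TGI: concentration producing complete growth inhibition.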
Experiments:
Test in all cases: NCI tumour cell line growth inhibition, 48 h
[1] = test system: SNB-75 CNS
[2] = test system: SF-295 CNS
[3] = test system: 786-0 renal
[4] = test system: A498 renal
[5] = test system: A549 NSCLC
[6] = test system: ACHN renal
[7] = test system: BT-549 breast
[8] = test system: CAKI-1 renal
[9] = test system: COLO 205 colon
[10] = test system: DU-145 prostate
[11] = test system: EKVX NSCLC
[12] = test system: HCC-2998 colon
[13] = test system: HCT-116 colon
[14] = test system: HCT-15 colon
[15] = test system: HL-60(TB) leukemia
[16] = test system: HOP-62 NSCLC
[17] = test system: HS 578T breast
[18] = test system: HT29 colon
[19] = test system: IGROV1 ovarian
[20] = test system: K-562 leukemia
[21] = test system: LOX IMVI melanoma
[22] = test system: M14 melanoma
[23] = test system: MALME-3M melanoma
[24] = test system: MCF7 breast
[25] = test system: MDA-MB-231 breast
[26] = test system: MDA-MB-435
[27] = test system: MOLT-4 leukemia
[28] = test system: NCI-H226 lung
[29] = test system: NCI-H23 lung
[30] = test system: NCI-H460 lung
[31] = test system: NCI-H522 lung
[32] = test system: NCI/ADR-RES ovarian
[33] = test system: OVCAR-3 ovarian
[34] = test system: OVCAR-4 ovarian
[35] = test system: OVCAR-5 ovarian
[36] = test system: OVCAR-8 ovarian
[37] = test system: PC-3 prostate
[38] = test system: RPMI-8226 leukemia
[39] = test system: RXF 393 renal
[40] = test system: SF-268 CNS
[41] = test system: SF-539 CNS
[42] = test system: SK-MEL-2 melanoma
[43] = test system: SK-MEL-28 melanoma
[44] = test system: SK-MEL-5 melanoma
[45] = test system: SK-OV-3 ovarian
[46] = test system: SN12C renal
[47] = test system: SNB-19 CNS
[48] = test system: SW-620 colon
[49] = test system: TK-10 renal
[50] = test system: U251 CNS
[51] = test system: UACC-257 melanoma
[52] = test system: UACC-62 melanoma
[53] = test system: CCRF-CEM leukemia
[54] = test system: HOP-92 NSCLC
[55] = test system: KM12 colon
[56] = test system: SR leukemia
[57] = test system: T-47D breast
[58] = test system: UO-31 renal

COC12C=CC(CC1)C(C)(C)C2O (stereo unspecified)
TGI [1]: > 100 µM

O=C(Nc1ccc([N+](=O)[O-])cc1)c1ccc([N+](=O)[O-])cc1
TGI [2]: > 100 µM | TGI [1]: > 100 µM

FC(F)(F)c1nc2cc(SSc3cc4nc(C(F)(F)F)[nH]c4cc3Cl)c(Cl)cc2[nH]1
TGI [3]: > 100 µM | TGI [4]: > 100 µM | TGI [5]: > 100 µM | TGI [6]: > 100 µM | TGI [7]: > 100 µM | TGI [8]: > 100 µM | TGI [9]: > 100 µM | TGI [10]: > 100 µM | TGI [11]: > 100 µM | TGI [12]: > 100 µM | TGI [13]: > 100 µM | TGI [14]: > 100 µM | TGI [15]: > 100 µM | TGI [16]: > 100 µM | TGI [17]: > 100 µM | TGI [18]: > 100 µM | TGI [19]: > 100 µM | TGI [20]: > 100 µM | TGI [21]: > 100 µM | TGI [22]: > 100 µM | TGI [23]: > 100 µM | TGI [24]: > 100 µM | TGI [25]: > 100 µM | TGI [26]: > 100 µM | TGI [27]: > 100 µM | TGI [28]: > 100 µM | TGI [29]: > 100 µM | TGI [30]: > 100 µM | TGI [31]: > 100 µM | TGI [32]: > 100 µM | TGI [33]: > 100 µM | TGI [34]: > 100 µM | TGI [35]: > 100 µM | TGI [36]: > 100 µM | TGI [37]: > 100 µM | TGI [38]: > 100 µM | TGI [39]: > 100 µM | TGI [40]: > 100 µM | TGI [2]: > 100 µM | TGI [41]: > 100 µM | TGI [42]: > 100 µM | TGI [43]: > 100 µM | TGI [44]: > 100 µM | TGI [45]: > 100 µM | TGI [46]: > 100 µM | TGI [47]: > 100 µM | TGI [48]: > 100 µM | TGI [49]: > 100 µM | TGI [50]: > 100 µM | TGI [51]: > 100 µM | TGI [52]: > 100 µM

COc1ccc(Cn2c3c(c4c(O)cccc42)C(=O)c2ccccc2-3)cc1
GI50 [3]: 4.02 µM | TGI [3]: 16.7 µM | GI50 [5]: 8.52 µM | TGI [5]: 32 µM | GI50 [6]: 5.14 µM | TGI [6]: 16.6 µM | GI50 [8]: 14.9 µM | TGI [8]: 29.6 µM | GI50 [53]: 73.6 µM | TGI [53]: > 100 µM | GI50 [9]: 25.9 µM | TGI [9]: 92.3 µM | GI50 [10]: 12.5 µM | TGI [10]: 24.9 µM | GI50 [11]: 12 µM | TGI [11]: 27.7 µM | GI50 [12]: 8.26 µM | TGI [12]: 21.7 µM | GI50 [13]: 9.16 µM | TGI [13]: 21.5 µM | GI50 [14]: 16.1 µM | TGI [14]: 89.8 µM | GI50 [16]: 4.39 µM | TGI [16]: 14.9 µM | GI50 [54]: 233 nM | TGI [54]: 4.23 µM | GI50 [17]: 4.44 µM | TGI [17]: 20.4 µM | GI50 [18]: 16 µM | TGI [18]: 38.5 µM | GI50 [19]: 11.2 µM | TGI [19]: > 100 µM | GI50 [20]: 24.3 µM | TGI [20]: > 100 µM | GI50 [55]: 7.65 µM | TGI [55]: 22 µM | GI50 [21]: 18.8 µM | TGI [21]: 47.8 µM | GI50 [22]: 14.4 µM | TGI [22]: 38 µM | GI50 [23]: 8.71 µM | TGI [23]: 22.4 µM | GI50 [24]: 10.7 µM | TGI [24]: 28.1 µM | GI50 [25]: 12.8 µM | TGI [25]: 25.4 µM | GI50 [26]: 13.3 µM | TGI [26]: 30.8 µM | GI50 [27]: 15.8 µM | TGI [27]: 49.3 µM | GI50 [28]: 13.4 µM | TGI [28]: 32.8 µM | GI50 [29]: 9.24 µM | TGI [29]: 22 µM | GI50 [30]: 12.8 µM | TGI [30]: 36.5 µM | GI50 [31]: 12.3 µM | TGI [31]: 93.1 µM | GI50 [32]: 2510 nM | TGI [32]: 11.3 µM | GI50 [33]: 14.3 µM | TGI [33]: 28.7 µM | GI50 [35]: 10 µM | TGI [35]: 21.6 µM | GI50 [36]: 3.08 µM | TGI [36]: 13.2 µM | GI50 [37]: 12.8 µM | TGI [37]: 25.4 µM | GI50 [38]: 11.8 µM | TGI [38]: 33.9 µM | GI50 [40]: 8.75 µM | TGI [40]: 29.1 µM | GI50 [2]: 12.6 µM | TGI [2]: 26.2 µM | GI50 [42]: 18.2 µM | TGI [42]: 45.9 µM | GI50 [43]: 11.6 µM | TGI [43]: 25 µM | GI50 [44]: 7.76 µM | TGI [44]: 20.6 µM | GI50 [45]: 14.9 µM | TGI [45]: 28.1 µM | GI50 [46]: 15.6 µM | TGI [46]: 29 µM | GI50 [47]: 6.05 µM | TGI [47]: 23.4 µM | GI50 [56]: 13.9 µM | TGI [56]: 30.5 µM | GI50 [48]: 12.6 µM | TGI [48]: 36.9 µM | GI50 [57]: 11 µM | TGI [57]: 37.9 µM | GI50 [49]: 4.36 µM | TGI [49]: 18.3 µM | GI50 [50]: 14.1 µM | TGI [50]: 27.1 µM | GI50 [51]: 11.7 µM | TGI [51]: 27.2 µM | GI50 [52]: 14.5 µM | TGI [52]: 30.1 µM | GI50 [58]: 13.8 µM | TGI [58]: 67.7 µM

— PubChem BioAssay (NCI)
